B1: IL-4: IL-4 used to induce STAT6 activity in A549 cells (protein, UniProt P05112 25-153, looked up)
Interleukin-4: HKCDITLQEIIKTLNSLTEQKTLCTELTVTDIFAASKNTTEKETFCRAATVLRQFYSHHEKDTRCLGATAQQFHRHKQLIRFLKRLDRNLWGLAGLNSCPVKEANQSTLENFLERLKTIMREKYSKCSS

Assays:
IL-6 = experiment: LPS-induced IL-6 secretion reduction in RAW264.7 cells (ELISA); assay type: cell-based, mouse; conditions: sample 100 μg/ml 1 h, then LPS 1 μg/ml 24 h, Table 3
Description: In DMEM (Dulbecco Modified Eagle Medium, Hyclone, Thermo Scientific) medium to which 10% Fetal Bovine Serum was added, RAW264.7 cells, a mouse macrophage family, were suspended at a concentration of 1×10^5 cells/ml, and culture was conducted in a 5% CO2 humidified incubator at 37° C. The cultured RAW264.7 cells were inoculated into a 48 well plate by 5×10^4 cells/ml and stabilized for 15 hours. Then, the culture solution was treated with a glycerol derivative compounds of the type shown in Table 2 and 3 below for 1 hour and then was treated with 1 μg/ml of Lipopolysaccaride (LPS) of a cell stimulator, and subsequent further incubation was conducted for 24 hours. Thereafter 0.5 ml of the culture supernatant was collected for each well and centrifuged (at 3000 rpm, 5 minutes) to recover the supernatant. The IL-6 level in the recovered supernatant was measured according to the manual provided by the Mouse IL-6 ELISA set (BD Biosciences). The day before ELISA was carried out, the IL-6 capture antibody was diluted in phosphate buffered saline, coated on a microwell, and then stored at 4° C. overnight. Each well was washed three times with a buffer solution and then blocked with 2% Bovine Serum Albumin (BSA) for 1 hour at room temperature. After washing with buffer solution three times, […] of sample was dispensed into each well and left at room temperature for 2 hours. Detection antibody which was washed 3 times with washing buffer solution and diluted was dispensed into each well and allowed to react at room temperature for 1 hour and left at room temperature for 1 hour. Thereafter, the secondary HRP conjugated antibody was reacted at room temperature for 30 minutes, washed three times with a buffer solution, and treated with 50 μl of stop solution for each well, and then the optical density was measured at 450 nm with an ELISA microplate leader. The results of the IL-6 expression reduction rate (IL-6 concentration) are shown in Table 2, Table 3, FIG. 1 and FIG. 2 below.

CXCL8 (IL-8) = CXCL8 (IL-8) expression reduction in Gemcitabine-treated THP-1 cells (ELISA); assay type: cell-based, human; conditions: for CXCL8 [IL-8] concentration (average ± deviation): THP-1 cells
Description: In RPMI (Hyclone, Thermo Scientific) medium to which 10% Fetal Bovine Serum was added, THP-1 cells, a human macrophage family, were suspended at a concentration of 1×10^5 cells/ml, and culture was conducted in a 5% CO2 humidified incubator at 37° C. The cultured THP-1 cells were inoculated into a 12 well plate by 1×10^6 cells/ml and stabilized for 30 minutes. Then, the culture solution was treated with a glycerol derivative compounds of the type shown in Table 6 below for 1 hour and then was treated with Gemcitabine (2 μg/ml) of a cell stimulator, and subsequent further incubation was conducted for 24 hours. Thereafter 1.5 ml of the culture supernatant was collected for each well and centrifuged (at 3000 rpm, 5 minutes) to recover the supernatant. The CXCL8 (IL-8) level in the recovered supernatant was measured according to the manual provided by the human IL-8 ELISA set (BD Biosciences). The day before ELISA was carried out, the IL-8 capture antibody was diluted in phosphate buffered saline, coated on a microwell, and then stored at 4° C. overnight. Each well was washed three times with a buffer solution and then blocked with 2% Bovine Serum Albumin (BSA) for 1 hour at room temperature. After washing with washing buffer solution three times, 100 μl of sample was dispensed into each well and left at room temperature for 2 hours. Detection antibody which was washed 3 times with washing buffer and diluted was dispensed into each well and allowed to react at room temperature for 1 hour and left at room temperature for 1 hour. Thereafter, the secondary HRP conjugated antibody was reacted at room temperature for 30 minutes, washed three times with a washing buffer, and treated with 50 μl of stop solution for each well, and then the optical density was measured at 450 nm with an ELISA microplate leader.

HL-60 cells = experiment: Migration of HL-60 cell line toward THP-1 culture supernatant (transmigration assay); assay type: cell-based, human
Description: In RPMI (Hyclone, Thermo Scientific) medium to which 10% Fetal Bovine Serum was added, THP-1 cells, a human macrophage family, were subcultured at a concentration of 1×10^5 cells/ml, and culture was conducted in a 5% CO2 humidified incubator at 37° C. In order to prepare the THP-1 cell culture solution to be treated in the lower well during the transmigration assay, first, the cultured THP-1 cells were inoculated into a 12 well plate by 1×10^6 cells/ml and stabilized for 30 minutes. Then, the culture solution was treated with a glycerol derivative compounds of the type shown in Table 7 below for 1 hour and then was treated with Gemcitabine (2 μg/ml) of a cell stimulator, and subsequent further incubation was conducted for 24 hours. Thereafter 1.5 ml of the culture supernatant was collected for each well and centrifuged (at 3000 rpm, 5 minutes) to recover the supernatant. The CXCL8 (IL-8) level in the recovered supernatant was measured according to the manual provided by Cultrex 96 well Laminin Cell Invasion assay. The day before Transmigration assay was carried out, a 1× Lamin I solution was treated in the upper Invasion Chamber and coated. Thereafter, in RPMI (Hyclone, Thermo Scientific) medium to which 10% Fetal Bovine Serum was added, the cultured HL-60 cells were despensed of 5×10^4 cells/chamber, and 150 μl of the THP-1 culture supernatant prepared in advance was added to the lower chamber. Thereafter the upper chamber was removed, and the cells were attached to the bottom of the lower chamber by a centrifuge, and then the supernatant was removed. Cell dissociation/Calcein-AM solution was added and reacted for 1 hour. Then, the value obtained using a fluorescence spectroscopy was calculated by converting the number of cells.

STAT3 = STAT3 activity, pGL4.47 SIE luciferase reporter in LPS-treated RAW264.7 cells; assay type: cell-based, mouse; conditions: sample 100 μg/ml 1 h, then LPS 1 μg/ml 18 h
Description: pGL4.47 [luc2P/SIE/Hygro] vector containing the sis-Inducible Element that binds to STAT3 was injected into RAW264.7 cells to confirm the degree of STAT3 activity. In DMEM (Hyclone, Thermo Scientific) medium to which 10% Fetal Bovine Serum was added, RAW264.7 cells were cultured at a concentration of 1×10^5 cells/ml, and maintained in a 5% CO2 humidified incubator at 37° C. The cultured RAW264.7 cells were inoculated into a 48 well plate by 1×10^5 cells/ml and stabilized for 18 hours. Thereafter, the pGL4.47 [luc2P/SIE/Hygro] vector containing sis-Inducible Element was mixed with Attractene to induce complex formation at room temperature for 15 minutes. This complex was treated with the cells and then further incubated for 18 hours. Thereafter, the culture solution was treated with a glycerol derivative compounds of the type shown in Table 5 below for 1 hour and then LPS (1 μg/ml) was treated and further incubated for 18 hours for STAT3 activity. Thereafter, the culture supernatant was removed for each well, and the remaining cells were lysed with a cell lysis buffer, and then cell lysate was recovered. 90 μl of luciferase reagent was mixed with 10 μl of the recovered cell lysate, and the degree of fluorescence was confirmed using a luminometer.

IL-4 = experiment: PKC activator-induced IL-4 secretion reduction in EL-4 cells (ELISA); assay type: cell-based, mouse; conditions: sample 100 μg/ml 2 h, then PKC activator 18 h, Table 12
Description: In DMEM (Dulbecco Modified Eagle Medium, Hyclone, Thermo Scientific) medium to which 10% Fetal Bovine Serum was added, EL-4 cells, a mouse lymphoma family, were subcultured at a concentration of 1×10^5 cells/ml, and culture was conducted in a 5% CO2 humidified incubator at 37° C. The cultured EL-4 cells were inoculated into a 48 well plate by 5×10^4 cells/ml and stabilized for 30 hours. Then, the culture solution was treated with a glycerol derivative compounds of the type shown in Table 11 and 12 below for 2 hours. Thereafter, it were treated with 0.5 μg/ml of PKC activator (p10, some kind of PMA) of a cell stimulator, and subsequent further incubation were conducted for 18 hours. Thereafter 0.5 ml of the culture supernatant was collected for each well and centrifuged (at 3000 rpm, 5 minutes) to recover the supernatant. The IL-4 level in the recovered supernatant was measured according to the manual provided by the Mouse IL-4 ELISA set (BD Biosciences). The day before ELISA was carried out, the IL-4 capture antibody was diluted in phosphate buffered saline, coated on a microwell, and then stored at 4° C. overnight. Each well was washed three times with a buffer solution and then blocked with 2% Bovine Serum Albumin (BSA) for 1 hour at room temperature. After washing with buffer solution three times, 100 μl of sample was dispensed into each well and left at room temperature for 2 hours. Detection antibody which was washed 3 times with washing buffer solution and diluted was dispensed into each well and allowed to react at room temperature for 1 hour and left at room temperature for 1 hour. Thereafter, the secondary HRP conjugated antibody was reacted at room temperature for 30 minutes, washed three times with buffer solution, and treated with 50 μl of stop solution for each well, and then the optical density was measured at 450 nm with an ELISA microplate leader. The results of the measured expression reduction rate ([…]) were shown in Table 11, Table 12, FIG. 11 and FIG. 12 below.

STAT6 = experiment: IL-4-induced STAT6 activity, pGL4-STAT6 luciferase reporter in A549 cells; assay type: cell-based
Description: In DMEM (Dulbecco Modified Eagle Medium, Hyclone, Thermo Scientific) medium to which 10% Fetal Bovine Serum was added, A549 cells were subcultured at a concentration of 1×10^5 cells/ml, and culture was conducted in a 5% CO2 humidified incubator at 37° C. The cultured A549 cells were inoculated into a 48 well plate by 1×10^5 cells/ml and stabilized for 18 hours. Thereafter, pGL4-STAT6 reporter vector containing a STAT6 binding promoter portion was mixed with Attractene to induce complex formation at room temperature for 15 minutes. This complex was treated with the cells and then further incubated for 24 hours. Thereafter, the culture solution was treated with a glycerol derivative compounds of the type shown in Table 9 and 10 below for 1 hour, and then IL-4 (2 ng/ml or 10 ng/ml) was further incubated for 20 hours for STAT6 activity. Thereafter, the culture supernatant was removed for each well, and the remaining cells were lysed with a cell lysis buffer, and then cell lysate was recovered. 90 μl of luciferase reagent was mixed with 10 μl of the recovered cell lysate, and the degree of fluorescence was confirmed using a luminometer. The results are shown in Table 9, Table 10, FIG. 9 and FIG. 10 below.

[1] = sample 100 μg/ml 1 h, then IL-4 (10 ng/ml) 20 h, Table 10
[2] = THP-1 cells treated with Gemcitabine

Molecule | IL-6 concentration (average ± deviation) (IL-6) [pg/µL] | STAT3 activity_Luciferase activity (average ± deviation) (STAT3) | IL-4 concentration (average ± deviation) (IL-4) [pg/µL] | STAT6 activity_Luciferase activity (average ± deviation) (STAT6; [1]) | other results
CCCCC/C=C\C/C=C\CCCCCCCC(=O)OC(COC(=O)CCCCCCCC)COC(=O)CCCCCCCCCCCCCCC (stereo not shown) [EC_A84] | 0.799 ± 0.025 | 780 ± 27.5 | 615.6 ± 25.0 | – | CXCL8 [IL-8] concentration (average ± deviation) (CXCL8 (IL-8); sample 100 μg/ml 1 h, then Gemcitabine 2 μg/ml 24 h): 110.5 ± 6.8 pg/µL; Number of HL-60 cells migrated through Transwell (HL-60 cells; supernatant of THP-1 cells treated with sample 100 μg/ml 1 h, then Gemcitabine 2 μg/ml 24 h): 2197.8 Cell Number
CCCCC/C=C\C/C=C\CCCCCCCC(=O)OC(COC(=O)CCCCCCCCCCC)COC(=O)C(C)C (stereo not shown) [EC_A94] | 0.702 ± 0.079 | 640 ± 275.7 | 523.8 ± 62.3 | 14677.5 ± 2168.7 | –
CCCCC/C=C\C/C=C\CCCCCCCC(=O)OC(COC(=O)CCCCCCCCCCC)COC(=O)C(C)(C)C (stereo not shown) [EC_A95] | 0.777 ± 0.020 | 663 ± 61.5 | 680.1 ± 12.2 | 13649.0 ± 7369.3 | –
Nc1ccn([C@@H]2O[C@H](CO)[C@@H](O)C2(F)F)c(=O)n1 [Gemcitabine, reference compound] | – | – | – | – | increase of CXCL8 (IL-8) secretion compared to the negative control group (CXCL8 (IL-8); [2]): about 13 times; CXCL8 [IL-8] concentration (average ± deviation) (CXCL8 (IL-8); Gemcitabine 2 μg/ml alone): 104.6 ± 1.5 pg/µL; increase of neutrophil cell migration compared to the negative control group (HL-60 cells; [2]): about twice; Number of HL-60 cells migrated through Transwell (HL-60 cells; supernatant of THP-1 cells treated with Gemcitabine 2 μg/ml alone): 5022.9 Cell Number
B1 | – | – | – | – | STAT6 activity_Luciferase activity (average ± deviation) (STAT6; IL-4 alone, concentration printed 2 (head μg/ml; method 2 ng/ml), Table 9): 982.0 ± 38.7; STAT6 activity_Luciferase activity (average ± deviation) (STAT6; IL-4 alone, concentration printed 10 (head μg/ml; method 10 ng/ml), Table 10): 22846.2 ± 2157.3
